This is an account of results in patent publication EP3575287A1, “INHIBITORS OF N-ACYLPHOSPHATIDYLETHANOLAMINE PHOSPHOLIPASE D (NAPE-PLD)” (Universiteit Leiden, priority 2018, dated 2019).

T1 sequence (Q6IQ20 whole entry): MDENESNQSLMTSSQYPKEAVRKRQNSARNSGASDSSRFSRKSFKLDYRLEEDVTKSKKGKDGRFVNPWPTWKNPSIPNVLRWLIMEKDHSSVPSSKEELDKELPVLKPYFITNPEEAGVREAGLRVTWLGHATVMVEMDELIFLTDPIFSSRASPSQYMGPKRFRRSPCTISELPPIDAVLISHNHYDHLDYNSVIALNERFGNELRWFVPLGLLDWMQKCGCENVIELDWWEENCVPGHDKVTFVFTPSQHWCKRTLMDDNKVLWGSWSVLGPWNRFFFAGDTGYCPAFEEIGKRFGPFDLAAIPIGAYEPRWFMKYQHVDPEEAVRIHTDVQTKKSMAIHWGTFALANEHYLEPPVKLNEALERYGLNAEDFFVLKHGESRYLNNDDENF

This assay concerns the target T1, human NAPE-PLD (Homo sapiens, UniProt Q6IQ20).
T1 construct: Full length human cDNA NAPE-PLD was obtained from Natsuo Ueda; made in house; host or cells: HEK293T cells, transient transfection (pcDNA3.1); membrane fraction used
Put plainly: In vitro NAPE-PLD activity assay. Format: biochemical. The settings on record: membrane protein fraction of HEK293T cells overexpressing human NAPE-PLD; substrate PED6 1 µM; 30 minutes preincubation at 37 °C. Here is the method: Full length human cDNA NAPE-PLD was obtained from Natsuo Ueda^1 and cloned into mammalian expression vector pcDNA3.1, containing a C-terminal Flag-tag and genes for ampicillin and neomycin resistance. All plasmids were grown in XL-10 Z-competent cells and prepped (Maxi Prep, Qiagen). Sequence analysis for the confirmation of the sequences was performed at the Leiden Genome Technology Centre.
HEK293T were cultured at 37 °C and 7% CO2 in DMEM (Sigma Aldrich, D6546) with glutamax, penicillin (100 µg/ml), streptomycin (100 µg/ml) and 10% New Born Calf Serum iron supplemented (Hyclone SH30072.03). Cells were passaged twice a week to appropriate confluence.
24 hours before transfection 10^7 cells are seeded on a 15 cm dish. Two hours before transfection medium is refreshed, low volume. Transfection is performed with PEI in a ratio of 3:1 with human NAPE-PLD or Mock pcDNA3.1 Neo, 20 µg per dish. Medium is refreshed after 24 hours and cells are harvested after 72 hours.
Cell pellets are re-suspended in lysis buffer: 20 mM Hepes, 2 mM DTT, 0.25 M sucrose, 1 mM MgCl2, 2.5 U/ml benzonase and incubated 30 minutes on ice. The cytosolic fraction (supernatant) is separated from the membranes by ultra-centrifugation (32000 rpm for 30 minutes 100,000g). The pellet is resuspended in storage buffer: 20 mM Hepes, 2 mM DTT (membrane fraction). All samples are stored at -80°C. Enzyme concentrations are determined using a Bradford assay.
The NAPE-PLD activity assay is based on a previously reported method with small alterations.^2 The membrane protein fraction from transient overexpression of human NAPE-PLD in HEK293T cells was diluted to 0.4 mg/ml in assay buffer: 50 mM Tris-HCl (pH 7.5), 0.02% Triton X-100, 150 mM NaCl. The substrate PED6 (Invitrogen) 1 mM stock was consecutively diluted in DMSO (10x) and in assay buffer (10x) to make a 10 µM working solution. […] The assay is performed in a dark Greiner 96 wells plate, end volume 100 µl. The compound or DMSO is incubated with membrane protein lysate (final concentration 0.04 mg/ml) for 30 minutes at 37 °C. […] Mock lysate with DMSO is used for background substraction. IC50 curves are generated used Graphpad Prism v6.
In the case of `O=C(NCC1CC1)c1cc(N2CCOCC2)nc(N2CCN(C(=O)OCc3ccccc3)C(c3ccccc3)C2)n1` (centres unmarked) [Example 74, benzyl 4-(4-((cyclopropylmethyl)carbamoyl)-6-morpholinopyrimidin-2-yl)-2-phenylpiperazine-1-carboxylate], the midpoint of inhibition, the IC50, lay at 3.24 µM. This counts as single-digit micromolar.

Take `O=C(NCC1CC1)c1cc(N2CCOCC2)nc(N2CCCC2Cc2ccccc2)n1` (centres unmarked) [Example 59, 2-(2-benzylpyrrolidin-1-yl)-N-(cyclopropylmethyl)-6-morpholinopyrimidine-4-carboxamide]: 0.38 µM corresponded to half-maximal inhibition (IC50). This IC50 is about 8.5-fold lower than that of the compound before.

Regarding `CN(CCCCc1ccccc1)c1nc(C(=O)NCC2CC2)cc(N2CCOCC2)n1` [Example 60, N-(cyclopropylmethyl)-2-(methyl(4-phenylbutyl)amino)-6-morpholinopyrimidine-4-carboxamide], the midpoint of inhibition, the IC50, lay at 10 µM.

For `O=C(NCC1CC1)c1cc(N2CC[C@@H](O)C2)nc(N2CCC[C@@H](c3ccccc3)C2)n1` [Example 43, N-(cyclopropylmethyl)-6-((R)-3-hydroxypyrrolidin-1-yl)-2-((S)-3-phenylpiperidin-1-yl)pyrimidine-4-carboxamide], the IC50 (commonly the concentration that gives 50% inhibition) is 0.11 µM.

With `CN(CCc1ccccc1)c1nc(C(=O)NCC2CC2)cc(-n2cccn2)n1` [Example 24, N-(cyclopropylmethyl)-2-(methyl(phenethyl)amino)-6-(1H-pyrazol-1-yl)pyrimidine-4-carboxamide], the midpoint of inhibition, the IC50, lay at 1.2 µM. This IC50 lies about 11-fold higher than the previous one.

Compound `CN(CCc1ccccc1)c1nc(C(=O)NCC2CC2)cc(N2CCC(N(C)C)C2)n1` (centres unmarked) [Example 33, N-(cyclopropylmethyl)-6-(3-(dimethylamino)pyrrolidin-1-yl)-2-(methyl(phenethyl)amino)pyrimidine-4-carboxamide] showed an IC50 of 9.55 µM.

Regarding `O=C(NCC1CC1)c1cc(N2CCOCC2)nc(N2CCNC(c3ccccc3)C2)n1` (centres unmarked) [Example 82, N-(cyclopropylmethyl)-6-morpholino-2-(3-phenylpiperazin-1-yl)pyrimidine-4-carboxamide], the midpoint of inhibition, the IC50, lay at 7.76 µM.

In turn, `O=C(NCC1CC1)c1cc(N2CCOCC2)nc(N2CCc3ccccc3C2)n1` [Example 63, N-(cyclopropylmethyl)-2-(3,4-dihydroisoquinolin-2(1H)-yl)-6-morphol inopyrimidine-4-carboxamide] showed an IC50 of 2.24 µM.

Regarding `CN(CCc1ccccc1)c1nc(C(=O)NCC2CC2)cc(-n2ccnc2)n1` [Example 23, N-(cyclopropylmethyl)-6-(1H-imidazol-1-yl)-2-(methyl(phenethyl)amino)pyrimidine-4-carboxamide], the IC50 was 2.24 µM. That is a single-digit micromolar value.

`CCNC(=O)c1cc(N2CCOCC2)nc(N(C)CCc2ccccc2)n1` [Example 4, N-ethyl-2-(methyl (phenethyl)amino)-6-morpholinopyrimidine-4-carboxamide]: the concentration for half-maximal inhibition (IC50) was 4.57 µM.

Consider `CN(CCc1cccnc1)c1nc(C(=O)NCC2CC2)cc(N2CCOCC2)n1` [Example 80, N-(cyclopropylmethyl)-2-(methyl(2-(pyridin-3-yl)ethyl)amino)-6-morpholinopyrimidine-4-carboxamide], for which half-maximal inhibition (IC50) was put at 10.7 µM.

With `C#CCNC(=O)c1cc(N2CC[C@H](O)C2)nc(N2CCN(Cc3ccc(C4(C(F)(F)F)N=N4)cc3)CC2)n1` [Example 44, (S)-6-(3-hydroxypyrrolidin-1-yl)-N-(prop-2-yn-1-yl)-2-(4-(4-(3-(trifluoromethyl)-3H-diazirin-3-yl)benzyl)piperazin-1-yl)pyrimidine-4-carboxamide], inhibition was half-maximal at 0.479 µM (IC50).

For `O=C(NCC1CC1)c1cc(N2CCOCC2)nc(N(CCc2ccccc2)C2CC2)n1` [Example 70, 2-(cyclopropyl(phenethyl)amino)-N-(cyclopropylmethyl)-6-morpholinopyrimidine-4-carboxamide], it took 1.1 µM to reach half-maximal inhibition (IC50).

The compound `CN(CCc1ccc(Cl)cc1)c1nc(C(=O)NCC2CC2)cc(N2CCOCC2)n1` [Example 57, 2-((4-chlorophenethyl)(methyl)amino)-N-(cyclopropylmethyl)-6-morphol inopyrimidine-4-carboxamide] had an IC50 of 6.31 µM.

The compound `COc1ccc(CCN(C)c2nc(C(=O)NCC3CC3)cc(N3CCOCC3)n2)cc1` [Example 64, N-(cyclopropylmethyl)-2-((4-methoxyphenethyl)(methyl)amino)-6-morpholinopyrimidine-4-carboxamide] gave an IC50 of 3.47 µM.

In turn, `CN(CCc1ccccc1)c1nc(C(=O)NCC2CC2)cc(N2CCN(C(=O)c3ccccc3)CC2)n1` [Example 16, 6-(4-benzoylpiperazin-1-yl)-N-(cyclopropylmethyl)-2-(methyl(phenethyl)amino)pyrimidine-4-carboxamide] showed an IC50 of 7.76 µM.

Compound `CN(CCCc1ccccc1)c1nc(C(=O)NCC2CC2)cc(N2CCOCC2)n1` [Example 58, N-(cyclopropylmethyl)-2-(methyl(3-phenylpropyl)amino)-6-morpholinopyrimidine-4-carboxamide] gave a half-maximal inhibitory concentration (IC50) of 3.16 µM.

In the case of `CN(CCc1ccccc1)c1nc(C(=O)NCC2CC2)cc(N2CCCC2)n1` [Example 17, N-(cyclopropylmethyl)-2-(methyl(phenethyl)amino)-6-(pyrrolidin-1-yl)pyrimidine-4-carboxamide], the IC50 is 0.224 µM.

The compound `CN(CCc1cccs1)c1nc(C(=O)NCC2CC2)cc(N2CCOCC2)n1` [Example 22, N-(cyclopropylmethyl)-2-(methyl(2-(thiophen-2-yl)ethyl)amino)-6-morpholinopyrimidine-4-carboxamide] had an IC50 of 1.07 µM.

In turn, `O=C(NCC1CC1)c1cc(N2CC[C@H](O)C2)nc(N2CCC[C@H](c3ccccc3)C2)n1` [Example 41, N-(cyclopropylmethyl)-6-((S)-3-hydroxypyrrolidin-1-yl)-2-((R)-3-phenylpiperidin-1-yl)pyrimidine-4-carboxamide] gave an IC50 of 0.251 µM. Against the preceding compound, the IC50 is about 4.3-fold lower.

Compound `CN(CCc1ccccc1)c1nc(C(=O)NCCO)cc(N2CCOCC2)n1` [Example 36, N-(2-hydroxyethyl)-2-(methyl(phenethyl)amino)-6-morpholinopyrimidine-4-carboxamide] showed an IC50 of 5.01 µM.

Take `CN(CCc1ccccc1)c1nc(C(=O)NCC2CC2)cc(N2CCNCC2)n1` [Example 11, N-(cyclopropylmethyl)-2-(methyl(phenethyl)amino)-6-(piperazin-1-yl)pyrimidine-4-carboxamide]: half-maximal inhibition (IC50) required 5.37 µM.

With `CN(CCc1ccccc1)c1nc(Oc2ccccc2)cc(C(=O)NCC2CC2)n1` [Example 87, N-(cyclopropylmethyl)-2-(methyl(phenethyl)amino)-6-phenoxypyrimidine-4-carboxamide], it took 11.2 µM to reach half-maximal inhibition (IC50).

`CN(CCc1ccncc1)c1nc(C(=O)NCC2CC2)cc(N2CCOCC2)n1` [Example 81, N-(cyclopropylmethyl)-2-(methyl(2-(pyridin-4-yl)ethyl)amino)-6-morpholinopyrimidine-4-carboxamide] had an IC50 of 11.5 µM.

As for `CN(CCc1ccccc1)c1nc(C(=O)NCC2CC2)cc(N2CCC(F)(F)CC2)n1` [Example 2, N-(cyclopropylmethyl)-6-(4,4-difluoropiperidin-1-yl)-2-(methyl(phenethyl)amino)pyrimidine-4-carboxamide], the IC50 is 8.91 µM.

The compound `CN(CCc1cccc(Oc2ccccc2)c1)c1nc(C(=O)NCC2CC2)cc(N2CCOCC2)n1` [Example 61, N-(cyclopropylmethyl)-2-(methyl(3-phenoxyphenethyl)amino)-6-morpholinopyrimidine-4-carboxamide] showed an IC50 of 3.47 µM.
